Results: patent US8802711B2, “TRPV1 antagonists” (AbbVie Inc., priority 2011, dated 2014)
pIC50: −log10 of the molar value.

Assays:
[1] = target: T1, human TRPV1 receptor (hTRPV1) (Homo sapiens (Human), UniProt Q8NER1); assay: Acid activation assay (pH 5.0, FLIPR intracellular Ca2+); type: cell-based; details: Table 1; 37.5 μM antagonist, percentage of the maximal pH 5.0-induced response remaining; read-out: hTRPV1 H+ (max % remain)
Protocol: Dulbecco's modified Eagle's medium (DMEM) with 4.5 mg/mL D-glucose, fetal bovine serum, L-glutamine, and 2-morpholinoethanesulfonic acid (MES) were purchased from Sigma-Aldrich Co. (St. Louis, Mo.). Dulbecco's phosphate-buffered saline (DPBS) with Ca^2+, Mg^2+, and 1 mg/mL D-glucose (pH 7.4), Geneticin®, 0.25% trypsin-1 mM EDTA, and penicillin-streptomycin were purchased from Invitrogen Corp. (Carlsbad, Calif.). The FLIPR® Calcium 4 assay kit was purchased from Molecular Devices (Sunnyvale, Calif.).
The cDNAs for the human TRPV1 receptor (hTRPV1) were isolated by reverse transcriptase-polymerase chain reaction (RT-PCR) from human small intestine poly A+RNA supplied by Clontech (Palo Alto, Calif.) using primers designed surrounding the initiation and termination codons identical to the published sequences (Hayes et al. Pain 2000, 88, 205-215). The resulting cDNA PCR products were subcloned into pCIneo mammalian expression vector (Promega) and fully sequenced using fluorescent dye-terminator reagents (Prism, Perkin-Elmer Applied Biosystems Division) and a Perkin-Elmer Applied Biosystems Model 373 DNA sequencer or Model 310 genetic analyzer. Expression plasmids encoding the hTRPV1 cDNA were transfected individually into 1321N1 human astrocytoma cells using Lipofectamine. Forty-eight hours after transfection, the neomycin-resistant cells were selected with growth medium containing 800 μg/mL Geneticin (Gibco BRL). Surviving individual colonies were isolated and screened for TRPV1 receptor activity. Cells expressing recombinant homomeric TRPV1 receptors were maintained at 37° C. in DMEM containing 4 mM L-glutamine, 300 μg/mL G418 (Cal-biochem) and 10% fetal bovine serum under a humidified 5% CO2 atmosphere.
The functional activity of compounds at the TRPV1 receptor was determined by measurement of intracellular Ca^2+ levels ([Ca^2+]i) using the Fluorescence Imaging Plate Reader (FLIPR)^TETRA®. All compounds were tested over a 12-point one-half-log concentration range. Compound stocks, 10 mM, were prepared in DMSO, and diluted serially across a 384-well plate using a Bravo BenchCel workstation (Agilent Technologies, Santa Clara, Calif.).
On the day of the experiment growth medium was removed, and the no-wash FLIPR® Calcium-4 dye (λEX=470-495 nm, λEM=515-575 nm) was added to each well using the Multidrop® dispenser. Cells were incubated for 90-120 minutes in the dark at 25° C. Test compounds were dissolved in DMSO, and plates were prepared using an Agilent Bravo workstation (Agilent Technologies Inc., Santa Clara, Calif.). Compounds were added to the cells 3 minutes prior to the addition of a pH 5.0 solution. Reagents were delivered at a rate of 40 μL/sec, and the final assay volume was 80 μL. Acidic pH solutions were prepared by titration of DPBS/MES with 1 N HCl. The intensity of the fluorescence was captured and digitally transferred to an interfaced PC.

[2] = target: T1, human TRPV1 receptor (hTRPV1); assay: Capsaicin activation assay (FLIPR intracellular Ca2+); type: cell-based; details: Table 1; inhibition of capsaicin-induced intracellular Ca2+ increase, HEK293 cells expressing human TRPV1; read-out: hTRPV1 cap IC50
Protocol: Dulbecco's modified Eagle medium (D-MEM) (with 4.5 mg/mL glucose) and fetal bovine serum were obtained from Hyclone Laboratories, Inc. (Logan, Utah). Dulbecco's phosphate-buffered saline (D-PBS) (with 1 mg/mL glucose and 3.6 mg/l Na pyruvate, without phenol red), L-glutamine, hygromycin B, and Lipofectamine® were obtained from Life Technologies (Grand Island, N.Y.). G418 sulfate was obtained from Calbiochem-Novabiochem Corp. (San Diego, Calif.). Capsaicin (8-methyl-N-vanillyl-6-nonenamide) was obtained from Sigma-Aldrich, Co. (St. Louis, Mo.). Fluo-4 AM (N-[4-[6-[(acetyloxy)methoxy]-2,7-difluoro-3-oxo-3H-xanthen-9-yl]-2-[2-[2-[bis[2-[(acetyloxy)methoxy]-2-oxyethyl]amino]-5-methyl phenoxy]ethoxy]phenyl]-N-[2-[(acetyloxy)methoxy]-2-oxyethyl]-glycine, (acetyloxy)methyl ester) was purchased from Molecular Probes (Eugene, Oreg.). […]
The functional activity of compounds at the TRPV1 receptor was determined by measurement of intracellular Ca^2+ levels ([Ca^2+]i) using the Fluorescence Imaging Plate Reader (FLIPR)^TETRA®. All compounds were tested over a 12-point one-third-log concentration range. Compound stocks, 10 mM, were prepared in DMSO, and diluted serially across a 384-well plate using a Bravo BenchCel workstation (Agilent Technologies, Santa Clara, Calif.). A stock concentration of capsaicin (10 mM) was made in DMSO, and diluted in D-PBS to a final concentration of 200 nM (4×). On the day prior to the experiment, recombinant HEK293 cells that stably express human TRPV1 were removed from tissue culture flasks and plated in growth medium into black-walled clear-bottom 384-well Biocoat™ poly-D-lysine assay plates (BD Biosciences, Bedford, Mass.) using a Multidrop® dispenser (ThermoScientific, Waltham, Mass.). On the day of the experiment, growth medium was removed, and the no-wash FLIPR® Calcium-4 dye (λEX=470-495 nm, λEM=515-575 nm; Molecular Devices, Sunnyvale, Calif.) was added to each well using the Multidrop® dispenser. Cells were incubated for 90-120 minutes in the dark at room temperature. Test compounds were added to the cells 3 minutes prior to the addition of 200 nM capsaicin (4×), and the final assay volume was 80 μL. Fluorescence readings were made at 1 to 5 second intervals over the course of the experimental run. The peak increase in relative fluorescence units (minus baseline) was calculated, and expressed as a percentage of the 50 nM capsaicin (control) response.

T1 sequence (Q8NER1 whole entry): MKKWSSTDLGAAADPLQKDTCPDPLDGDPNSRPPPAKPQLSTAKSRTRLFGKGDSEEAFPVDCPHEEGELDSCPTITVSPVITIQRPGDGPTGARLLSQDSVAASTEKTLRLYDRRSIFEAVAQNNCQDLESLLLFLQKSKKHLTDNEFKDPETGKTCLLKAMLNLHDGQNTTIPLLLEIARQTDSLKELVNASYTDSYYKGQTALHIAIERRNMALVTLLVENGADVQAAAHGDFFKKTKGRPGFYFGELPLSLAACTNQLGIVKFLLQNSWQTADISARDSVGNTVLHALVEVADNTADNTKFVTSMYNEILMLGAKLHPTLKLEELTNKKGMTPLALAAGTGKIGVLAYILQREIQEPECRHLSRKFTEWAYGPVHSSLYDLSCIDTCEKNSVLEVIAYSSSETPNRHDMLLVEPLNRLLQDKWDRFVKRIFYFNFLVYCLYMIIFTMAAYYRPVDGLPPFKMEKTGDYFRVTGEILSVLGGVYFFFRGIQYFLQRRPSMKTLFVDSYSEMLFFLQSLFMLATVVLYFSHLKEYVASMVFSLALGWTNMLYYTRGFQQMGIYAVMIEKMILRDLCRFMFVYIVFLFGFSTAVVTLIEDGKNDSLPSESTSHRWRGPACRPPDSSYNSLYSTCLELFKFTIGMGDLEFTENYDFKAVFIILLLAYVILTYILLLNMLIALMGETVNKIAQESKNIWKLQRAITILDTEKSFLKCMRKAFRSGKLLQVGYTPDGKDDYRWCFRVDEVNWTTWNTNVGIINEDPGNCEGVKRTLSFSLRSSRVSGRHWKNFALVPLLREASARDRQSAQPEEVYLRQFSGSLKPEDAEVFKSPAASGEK

| remaining activity at 37.5 µM [1] | pIC50 [2] | Compound |
| --- | --- | --- |
| 2% | 8.40 | O=C(Nc1cccc2c1C[C@H](O)CC2)N[C@@H]1CC[C@H](c2ccccc2)C1 [Compound G, 1-[(7R)-7-hydroxy-5,6,7,8-tetrahydronaphthalen-1-yl]-3-[(1R,3S)-3-phenylcyclopentyl]urea, reference compound] |
| 93% | 6.97 | O=C(Nc1cccc2c1C[C@H](O)C2)N[C@@H]1CC[C@H](c2ccccc2)C1 [Example 1, 1-[(2R)-2-hydroxy-2,3-dihydro-1H-inden-4-yl]-3-[(1R,3S)-3-phenylcyclopentyl]urea] |
| 2% | 7.26 | C[C@H]1Oc2c(NC(=O)N[C@@H]3CC[C@H](c4ccccc4)C3)cccc2NC1=O [Example 3, 1-[(2R)-2-methyl-3-oxo-3,4-dihydro-2H-1,4-benzoxazin-8-yl]-3-[(1R,3S)-3-phenylcyclopentyl]urea] |
| 81% | 7.15 | O=C1CCc2ccc(NC(=O)N[C@@H]3CC[C@H](c4ccccc4)C3)cc2N1 [Example 5, 1-(2-oxo-1,2,3,4-tetrahydroquinolin-7-yl)-3-[(1R,3S)-3-phenylcyclopentyl]urea] |
| 78% | 6.91 | O=C(Nc1cccc2c1C[C@H](O)C2)N[C@H]1CC[C@H](c2ccccc2)C1 [Example 8, 1-[(2R)-2-hydroxy-2,3-dihydro-1H-inden-4-yl]-3-[(1S,3S)-3-phenylcyclopentyl]urea] |
| 14% | 6.69 | O=C(Nc1cccc2c1C[C@@H](O)C2)N[C@H]1CC[C@H](c2ccccc2)C1 [Example 9, 1-[(2S)-2-hydroxy-2,3-dihydro-1H-inden-4-yl]-3-[(1S,3S)-3-phenylcyclopentyl]urea] |
| 3% | 7.08 | C[C@H]1Oc2c(NC(=O)N[C@H]3CC[C@H](c4ccccc4)C3)cccc2NC1=O [Example 10, 1-[(2R)-2-methyl-3-oxo-3,4-dihydro-2H-1,4-benzoxazin-8-yl]-3-[(1S,3S)-3-phenylcyclopentyl]urea] |
| 49% | 7.08 | Cn1ncc2c(NC(=O)N[C@H]3CC[C@H](c4ccccc4)C3)cccc21 [Example 11, 1-(1-methyl-1H-indazol-4-yl)-3-[(1S,3S)-3-phenylcyclopentyl]urea] |
| 65% | 6.68 | O=C1CCc2ccc(NC(=O)N[C@H]3CC[C@H](c4ccccc4)C3)cc2N1 [Example 12, 1-(2-oxo-1,2,3,4-tetrahydroquinolin-7-yl)-3-[(1S,3S)-3-phenylcyclopentyl]urea] |
| 60% | 7.89 | Cc1cc2c(NC(=O)N[C@H]3CC[C@H](c4ccccc4)C3)c(F)ccc2cn1 [Example 13, 1-(6-fluoro-3-methylisoquinolin-5-yl)-3-[(1S,3S)-3-phenylcyclopentyl]urea] |
| 20% | 6.75 | O=C(Nc1cccc2c1C[C@H](O)C2)N[C@@H]1CC[C@@H](c2ccccc2)C1 [Example 15, 1-[(2R)-2-hydroxy-2,3-dihydro-1H-inden-4-yl]-3-[(1R,3R)-3-phenylcyclopentyl]urea] |
| 87% | 7.10 | O=C(Nc1cccc2c1C[C@@H](O)C2)N[C@@H]1CC[C@@H](c2ccccc2)C1 [Example 16, 1-[(2S)-2-hydroxy-2,3-dihydro-1H-inden-4-yl]-3-[(1R,3R)-3-phenylcyclopentyl]urea] |
| 25% | 6.43 | C[C@H]1Oc2c(NC(=O)N[C@@H]3CC[C@@H](c4ccccc4)C3)cccc2NC1=O [Example 17, 1-[(2R)-2-methyl-3-oxo-3,4-dihydro-2H-1,4-benzoxazin-8-yl]-3-[(1R,3R)-3-phenylcyclopentyl]urea] |
| 18% | 7.15 | Cn1ncc2c(NC(=O)N[C@@H]3CC[C@@H](c4ccccc4)C3)cccc21 [Example 18, 1-(1-methyl-1H-indazol-4-yl)-3-[(1R,3R)-3-phenylcyclopentyl]urea] |
